From the Biogen ADME set (Fang et al. 2023) come the findings set out here.

Values after ≈ are worked out from the molar mass of the structure shown.

Usually aqueous solubility stands for the concentration that dissolves in the medium under given conditions.

The conditions of the series: for aqueous solubility: pH 6.8.

`Cn1ccc(C(=O)NCCc2cc3nc(-c4ccncc4)ccn3n2)n1`: the intrinsic clearance, human liver microsomes came out at 8.83 mL/min/kg and the intrinsic clearance, rat liver microsomes stood at 105 mL/min/kg.
Turning to `Fc1ccc(CNc2nnc(-c3ccc4c(c3)OCO4)o2)cc1`, the MDR1-MDCK efflux ratio is 0.313; the intrinsic clearance, human liver microsomes turned out to be 95.2 mL/min/kg; the intrinsic clearance, rat liver microsomes was 4490 mL/min/kg; the aqueous solubility worked out at 2.57 µg/mL (≈ 8.2 µM).
On to `C/N=C(\NC#N)NCCSCc1nc[nH]c1C`, for which the intrinsic clearance, human liver microsomes is not above 4.74 mL/min/kg; the intrinsic clearance, rat liver microsomes is not above 10.7 mL/min/kg; the aqueous solubility is 41.6 µg/mL (≈ 165 µM).
With `CC1CCC(O)(CSc2nnnn2C2CC2)CC1` (stereo unspecified), the MDR1-MDCK efflux ratio was found to be 0.616; the intrinsic clearance, human liver microsomes was 12.7 mL/min/kg; the intrinsic clearance, rat liver microsomes was 355 mL/min/kg.
For `Cc1ccc2c(c1)cc(C(=O)N1CCOC(C(=O)N3CCc4ccccc4C3)C1)n2C` (stereo unspecified) the same measures were 2.39, 196 mL/min/kg and 2510 mL/min/kg.
As for `OC1(Cn2nnc(-c3cccnc3)n2)CCCCC1`, the MDR1-MDCK efflux ratio is 0.66; the intrinsic clearance, human liver microsomes was not above 4.74 mL/min/kg; the intrinsic clearance, rat liver microsomes came to 142 mL/min/kg; the aqueous solubility worked out at 25.1 µg/mL (≈ 96.7 µM).
As to `O=C(COCC1CC1)N1CCCc2ncccc21`, the MDR1-MDCK efflux ratio came to 0.825; the intrinsic clearance, human liver microsomes stood at 13.8 mL/min/kg; the intrinsic clearance, rat liver microsomes amounted to 68 mL/min/kg; the aqueous solubility was 33.9 µg/mL (≈ 138 µM).
On to `COc1cc(Nc2ncc3c(n2)-c2ccc(Cl)cc2C(c2c(F)cccc2OC)=NC3)ccc1C(=O)O`, for which the MDR1-MDCK efflux ratio was found to be 13.5; the intrinsic clearance, human liver microsomes was not above 4.74 mL/min/kg; the intrinsic clearance, rat liver microsomes was 20.5 mL/min/kg; the aqueous solubility turned out to be 73.1 µg/mL (≈ 141 µM).
For `CC(=O)N1c2ccccc2C[C@H]1C(=O)O`, the intrinsic clearance, human liver microsomes was not above 4.74 mL/min/kg; the intrinsic clearance, rat liver microsomes is not above 10.7 mL/min/kg; the aqueous solubility came out at 33.6 µg/mL (≈ 164 µM).
Consider `CCOCCNC(=O)c1cccc(-c2cc(F)ccc2OC)c1`, for which the MDR1-MDCK efflux ratio was determined as 0.525; the intrinsic clearance, human liver microsomes turned out to be 130 mL/min/kg; the intrinsic clearance, rat liver microsomes stood at 819 mL/min/kg.
Regarding `Nc1n[nH]cc1-c1cc(Cl)ccc1Oc1cc(F)c(S(=O)(=O)Nc2cscn2)cc1Cl`, the MDR1-MDCK efflux ratio was determined as 76.2; the fraction unbound, human plasma is 0.00442; the fraction unbound, rat plasma was 0.00827; the intrinsic clearance, human liver microsomes was found to be 11.6 mL/min/kg. Besides, the intrinsic clearance, rat liver microsomes was 37.3 mL/min/kg and the aqueous solubility was 29.9 µg/mL (≈ 59.7 µM).
`Cc1nc(CNC(=O)c2ccc(F)c(C)c2)no1` showed an intrinsic clearance, human liver microsomes not above 4.74 mL/min/kg and an intrinsic clearance, rat liver microsomes not above 10.7 mL/min/kg.
For the compound `Cc1nc(NCc2scnc2C)n(C)n1`, the MDR1-MDCK efflux ratio amounted to 4.21; the intrinsic clearance, human liver microsomes is not above 4.74 mL/min/kg; the intrinsic clearance, rat liver microsomes is not above 10.7 mL/min/kg; the aqueous solubility came out at 27.7 µg/mL (≈ 124 µM).
As for `O=c1oc2cccnc2n1Cc1cnn(-c2ccccc2)n1`, the intrinsic clearance, human liver microsomes was not above 4.74 mL/min/kg and the intrinsic clearance, rat liver microsomes was 63.7 mL/min/kg.
In the case of `N#Cc1ccnc(Nc2cc(C3CCN(C4COC4)CC3)cc(N3CCC(F)(F)C3)n2)c1`, the MDR1-MDCK efflux ratio is 1.85 and the aqueous solubility worked out at 0.71 µg/mL (≈ 1.61 µM).
In the case of `Cc1nc(O)cc(C2CCN(c3cnccn3)CC2)n1`, the MDR1-MDCK efflux ratio is 42; the intrinsic clearance, human liver microsomes is not above 4.74 mL/min/kg; the intrinsic clearance, rat liver microsomes came to 20.1 mL/min/kg; the aqueous solubility was 50.7 µg/mL (≈ 187 µM).
Compound `COc1ccc2c(c1)CC[C@@H]1[C@@H]2CC[C@]2(C)[C@@H](NCCCCCCN3C(=O)C=CC3=O)CC[C@@H]12` came in with an intrinsic clearance, human liver microsomes of 6.09 mL/min/kg and an intrinsic clearance, rat liver microsomes of 38.7 mL/min/kg.
Regarding `Cn1cc(NC(=O)[C@@H]2CCCCN2C(=O)OC(C)(C)C)cn1`, the MDR1-MDCK efflux ratio was found to be 4.1; the intrinsic clearance, human liver microsomes was not above 4.74 mL/min/kg; the intrinsic clearance, rat liver microsomes was determined as 28.2 mL/min/kg; the aqueous solubility turned out to be 67.2 µg/mL (≈ 218 µM).
For `O=C(O)c1c2ccccc2nn1Cc1ccccc1` the same measures were 1.62, not above 4.74 mL/min/kg, not above 10.7 mL/min/kg and 37.2 µg/mL (≈ 147 µM).
As for `Cc1nnc(CN(C)CC(C)Oc2ccc(Cl)c(Cl)c2)n1C` (stereo unspecified), the MDR1-MDCK efflux ratio stood at 7.09; the fraction unbound, human plasma was 0.0844; the fraction unbound, rat plasma came to 0.13; the intrinsic clearance, human liver microsomes came out at 132 mL/min/kg. Besides, the intrinsic clearance, rat liver microsomes was 1440 mL/min/kg and the aqueous solubility was determined as 33 µg/mL (≈ 96.1 µM).
`COCC(=O)Nc1ccc(NC(=O)Cc2ccc(C(F)(F)F)cc2)cc1`: the MDR1-MDCK efflux ratio is 1.08; the intrinsic clearance, human liver microsomes was 32.8 mL/min/kg; the intrinsic clearance, rat liver microsomes worked out at 88.9 mL/min/kg.
For `Nc1nnc(SCCSC2CCCCC2)n1C1CC1` the same measures were 3.81, 48.5 mL/min/kg and 582 mL/min/kg.
On to `Nc1nc(N)c2c(OCC3CCN(Cc4c(Cl)cccc4Cl)CC3)cccc2n1`, for which the MDR1-MDCK efflux ratio was 0.816 and the aqueous solubility amounted to 0.4 µg/mL (≈ 0.925 µM).
Consider `Cc1ccc([C@@H]2N[C@@H](Cc3ccccc3)C(=O)N2C)o1`, for which the MDR1-MDCK efflux ratio worked out at 0.764; the intrinsic clearance, human liver microsomes is not above 4.74 mL/min/kg; the intrinsic clearance, rat liver microsomes is 151 mL/min/kg; the aqueous solubility was 53.3 µg/mL (≈ 197 µM).
For `COc1cc(C)cc(OC)c1-c1ccc(-c2nn[nH]n2)cc1`, the MDR1-MDCK efflux ratio amounted to 1.97; the intrinsic clearance, human liver microsomes is not above 4.74 mL/min/kg; the intrinsic clearance, rat liver microsomes was 83.2 mL/min/kg.
In the case of `CCc1ccccc1NC(=O)Cn1nc(C)cc1C`, the MDR1-MDCK efflux ratio came to 0.716; the intrinsic clearance, human liver microsomes was 25.2 mL/min/kg; the intrinsic clearance, rat liver microsomes amounted to 94.9 mL/min/kg; the aqueous solubility was found to be 44.2 µg/mL (≈ 172 µM).
In turn, `Cc1ccc(CN(C)Cc2c(C)noc2C)o1` displayed an intrinsic clearance, human liver microsomes of 27.6 mL/min/kg; an intrinsic clearance, rat liver microsomes of 1270 mL/min/kg; an aqueous solubility of 31.6 µg/mL (≈ 135 µM).
On to `Cc1cc(C)n2nc(C)c(C(=O)NCC3CC3)c2n1`, for which the MDR1-MDCK efflux ratio came to 0.725; the intrinsic clearance, human liver microsomes was 46.7 mL/min/kg; the intrinsic clearance, rat liver microsomes turned out to be 106 mL/min/kg.
Consider `COc1ccc(Cl)cc1C(=O)NCCc1ccc(S(=O)(=O)NC(=O)NC2CCCCC2)cc1`, for which the MDR1-MDCK efflux ratio is 123; the fraction unbound, human plasma stood at 0.00121; the fraction unbound, rat plasma is 0.00114; the intrinsic clearance, human liver microsomes turned out to be 28.7 mL/min/kg. The intrinsic clearance, rat liver microsomes amounted to 535 mL/min/kg.
Take `O=C(O)Cc1nc2ccccc2[nH]1`: the aqueous solubility was determined as 10.1 µg/mL (≈ 57 µM).
With `CN1C(=O)[C@H]2CN(CC3=CC[C@H]4C[C@@H]3C4(C)C)C[C@H]2C1=O`, the MDR1-MDCK efflux ratio was 0.768; the intrinsic clearance, human liver microsomes amounted to 207 mL/min/kg; the intrinsic clearance, rat liver microsomes was 2390 mL/min/kg.
On to `CCc1cc2c(cc1N1CCC(N3CCOCC3)CC1)C(C)(C)c1[nH]c3cc(C#N)ccc3c1C2=O`, for which the MDR1-MDCK efflux ratio is 11.8; the intrinsic clearance, human liver microsomes came to 35.8 mL/min/kg; the intrinsic clearance, rat liver microsomes came to 17.8 mL/min/kg; the aqueous solubility is 11.7 µg/mL (≈ 24.2 µM).
Regarding `CC(C)C(=O)Nc1ncc(-c2ccccc2)s1`, the MDR1-MDCK efflux ratio was 0.393 and the aqueous solubility came to 0.55 µg/mL (≈ 2.23 µM).
Consider `CC(C)c1ccc(NC(=O)c2ccc3nccnc3c2)cc1`, for which the intrinsic clearance, human liver microsomes stood at 29.1 mL/min/kg; the intrinsic clearance, rat liver microsomes turned out to be 608 mL/min/kg; the aqueous solubility stood at 4.96 µg/mL (≈ 17 µM).
Consider `CCN(C(=O)c1cc(NC(C)=O)ccc1F)C1CCCC1`, for which the MDR1-MDCK efflux ratio came to 14.2; the intrinsic clearance, human liver microsomes came to 63 mL/min/kg; the intrinsic clearance, rat liver microsomes was 2210 mL/min/kg; the aqueous solubility was found to be 48.8 µg/mL (≈ 167 µM).
In the case of `Cc1c(NC(=O)c2cc(C(N)=O)nc3cc(F)ccc23)c(C(F)(F)F)nn1Cc1ccc(C#N)cc1`, the MDR1-MDCK efflux ratio came out at 82.1 and the aqueous solubility was found to be 0.18 µg/mL (≈ 0.363 µM).
As for `Cn1ccnc1-c1noc(NCc2ccccc2)n1`, the MDR1-MDCK efflux ratio came to 1.21; the intrinsic clearance, human liver microsomes was 5.04 mL/min/kg; the intrinsic clearance, rat liver microsomes was found to be 193 mL/min/kg.
`CN1N=C(SCc2ccc(Cl)cc2Cl)Sc2c1cnn(C)c2=O` gave an intrinsic clearance, human liver microsomes of 137 mL/min/kg and an intrinsic clearance, rat liver microsomes of 1890 mL/min/kg.
`c1cnc(NCc2cccc(-c3cccnc3)c2)nc1`: the MDR1-MDCK efflux ratio is 0.571; the intrinsic clearance, human liver microsomes came to 19.6 mL/min/kg; the intrinsic clearance, rat liver microsomes is 148 mL/min/kg.
Take `Cc1ncc(C(=O)Nc2ncnc3oc(C)c(C)c23)s1`: the MDR1-MDCK efflux ratio came to 0.422; the intrinsic clearance, human liver microsomes was 26.3 mL/min/kg; the intrinsic clearance, rat liver microsomes stood at 160 mL/min/kg; the aqueous solubility came to 53.2 µg/mL (≈ 185 µM).
Consider `CN1CCCN(C(=O)Nc2cccc(OCC(F)F)n2)CC1`, for which the intrinsic clearance, human liver microsomes is not above 4.74 mL/min/kg and the intrinsic clearance, rat liver microsomes was found to be 191 mL/min/kg.
Compound `CN(C)c1ccnc(NC(=O)c2cnsn2)c1` returned an intrinsic clearance, human liver microsomes of 163 mL/min/kg and an intrinsic clearance, rat liver microsomes of 280 mL/min/kg.
In the case of `CCn1nc(CNC(=O)c2nc(C)c[nH]2)c2ccccc21`, the MDR1-MDCK efflux ratio came to 5.37; the intrinsic clearance, human liver microsomes came out at 11.2 mL/min/kg; the intrinsic clearance, rat liver microsomes amounted to 236 mL/min/kg.
As to `CC[C@@H]1CN(c2ccc(C(=O)Nc3cn4cc(C)nc4cn3)c(F)c2)CCN1`, the MDR1-MDCK efflux ratio was 2.39.
For the compound `COc1cccc(N(C)CCC(=O)N2CCC(c3ccc(-c4ccc(N)nc4)cn3)CC2)c1`, the MDR1-MDCK efflux ratio was 6.73; the intrinsic clearance, human liver microsomes turned out to be 821 mL/min/kg; the intrinsic clearance, rat liver microsomes was 1770 mL/min/kg; the aqueous solubility is 47 µg/mL (≈ 106 µM).
`CCC(C)(C)c1ccc(Oc2ccc(NC(=O)Nc3ccccc3OC)cc2)cc1` yielded an aqueous solubility of 0.43 µg/mL (≈ 1.06 µM).
As to `Cn1cc(CCNC(=O)N2CCCc3c(F)cccc32)cn1`, the MDR1-MDCK efflux ratio was 1.71; the intrinsic clearance, human liver microsomes worked out at 25.2 mL/min/kg; the intrinsic clearance, rat liver microsomes was 230 mL/min/kg; the aqueous solubility amounted to 42.5 µg/mL (≈ 141 µM).
The matching figures for `CCSCc1nc(N)c2ccccc2n1`: 0.681, 30.3 mL/min/kg, 121 mL/min/kg and 30.4 µg/mL (≈ 139 µM).
